Data on one molecule can be found in PMC7791078 (Molecular Therapy, 2020).

For one test, the target named is T1, minke whale NIS (wNIS) (Balaenoptera acutorostrata, UniProt A0A384B8D1).
T1 sequence (A0A384B8D1 1-642): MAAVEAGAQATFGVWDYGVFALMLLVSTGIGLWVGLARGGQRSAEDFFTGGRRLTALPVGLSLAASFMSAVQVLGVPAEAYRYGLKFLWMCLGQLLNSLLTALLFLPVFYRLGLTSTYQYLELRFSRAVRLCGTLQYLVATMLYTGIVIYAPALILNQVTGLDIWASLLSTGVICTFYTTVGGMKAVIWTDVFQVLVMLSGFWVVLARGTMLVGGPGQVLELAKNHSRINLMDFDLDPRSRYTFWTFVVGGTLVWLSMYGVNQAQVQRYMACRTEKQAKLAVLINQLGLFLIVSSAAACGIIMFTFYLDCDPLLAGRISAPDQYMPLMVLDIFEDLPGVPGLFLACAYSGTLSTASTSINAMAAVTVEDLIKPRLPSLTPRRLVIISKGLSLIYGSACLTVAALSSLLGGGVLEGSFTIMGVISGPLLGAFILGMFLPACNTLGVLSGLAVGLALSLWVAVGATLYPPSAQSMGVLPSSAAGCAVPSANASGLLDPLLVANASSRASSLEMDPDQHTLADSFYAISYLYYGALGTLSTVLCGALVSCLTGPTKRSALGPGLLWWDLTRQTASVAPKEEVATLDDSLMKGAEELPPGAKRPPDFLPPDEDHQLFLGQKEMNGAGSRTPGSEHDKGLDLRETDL
Put plainly: inhibition of […]mTcO4 uptake in transduced HeLa cells. Format: cell-based.

A further test deals with T2, human NIS (hNIS) (Homo sapiens, UniProt Q92911).
T2 sequence (Q92911 1-643): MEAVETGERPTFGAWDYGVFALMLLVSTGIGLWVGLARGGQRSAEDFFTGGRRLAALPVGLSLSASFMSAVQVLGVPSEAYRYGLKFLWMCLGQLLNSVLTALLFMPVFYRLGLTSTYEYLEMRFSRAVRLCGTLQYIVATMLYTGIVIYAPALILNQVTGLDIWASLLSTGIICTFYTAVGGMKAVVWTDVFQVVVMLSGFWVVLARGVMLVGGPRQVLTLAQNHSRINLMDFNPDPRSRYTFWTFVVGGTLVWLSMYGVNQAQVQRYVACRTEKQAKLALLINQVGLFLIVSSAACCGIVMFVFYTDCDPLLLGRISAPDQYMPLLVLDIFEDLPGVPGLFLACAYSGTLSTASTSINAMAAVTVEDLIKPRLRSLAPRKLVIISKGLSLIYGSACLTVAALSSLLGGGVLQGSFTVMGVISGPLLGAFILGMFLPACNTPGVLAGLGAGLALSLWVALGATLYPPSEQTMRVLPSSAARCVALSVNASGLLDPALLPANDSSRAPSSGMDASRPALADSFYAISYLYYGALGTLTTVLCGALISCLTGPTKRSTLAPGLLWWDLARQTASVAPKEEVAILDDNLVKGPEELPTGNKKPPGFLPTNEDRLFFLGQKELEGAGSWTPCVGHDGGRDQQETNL
Described as above. It counts as cell-based.

As to `[O-][Cl+3]([O-])([O-])O` [perchlorate], the figures for the concentration for half-maximal inhibition (IC50) on minke whale NIS (wNIS) and at human NIS (hNIS) were 2.86 µM and 0.195 µM, respectively.

What is called IC50 is the midpoint of a concentration-inhibition curve.
